Data from US20080045419A1, “Screening Assay” (priority 2006, published 2008).
Entries after “also recorded” stand apart in the source; their conditions may differ.

Tested on: Rad17 self-interaction (Rad17/Rad17)
Assay: DIPI assay (DNA-damage-induced increased protein interaction), two-hybrid colony growth on -His medium
Type: cell-based, Saccharomyces cerevisiae
Details: for Rad17 self-interaction response in DIPI assay (colony growth on -His medium): wild-type reporter strain CG1945, pCAD1-Rad17/pGBT9-Rad17, plate assay
Text: A reporter strain is co-transformed with Rad17-Gal4-DNA-binding-domain and Rad17-Gal4-transcriptional-activation-domain fusions (“bait” and “prey” plasmids). Enhanced protein-protein interaction is visualized by activation of a Gal4responsive chromosomal reporter gene construct required for histidine synthesis (HIS3) (FIG. 1).
These cells are exposed to a DNA-damaging agent in form of a gradient on a histidine-omission plate. […] It should also be mentioned that the use of a blue color marker (LacZ gene) is possible. It is not unusual that the context of a promoter affects the specific interaction and may be easily addressed by switching to one of a wide variety or readily available commercial and non-commercial expression systems.
[pCAD1-Rad17/pGBT9-Rad17], respectively. […] Responses in a wild-type reporter strain (WT, left two plates) and a mutant deleted for topoisomerase I (top1δ, right) are compared. Cells of the reporter strain (CG1945), previously co-transformed with Rad17 bait/prey Gal4-fusions (pCAD1-Rad17/pGBT9-Rad17) were plated as indicated. The genotoxic agent CPT or DMSO (solvent control) was applied on a filter paper.
Using manual replicating on large petri dishes, these were transferred to -His plates that had been inoculated with cells of a reporter strain, co-transformed with Rad17 bait/prey plasmids as described.
DIPI assay was performed in a high-throughput mode. The Petri dish assay was adapted to the 96 well plate format in order to use conventional high-throughput machinery. Two protocols were explored (FIG. 4). In both cases, the selective agar medium lacking leucine, tryptophan and histidine was poured in the plate wells. In protocol 1, cell suspension was pipeted on top of the plate and, after drying, a sample of CPT. In protocol 2, cells were mixed with agar and pipeted, resulting in a cell-containing agar layer. CPT was added on top. After 3-4 days, the plates were evaluated for colony growth.
All cells will be exposed to a CPT concentration that leads to some low amount of colony formation on selective medium. Briefly, the haploid two-hybrid reporter strain CG1945 (4) is co-transformed with plasmids pGBT9Rad17 and pCAD1-Rad17. […] The selected co-transformant is grown up to stationary phase in yeast synthetic medium (SM) without tryptophan and leucine to retain both plasmids. Incubation period is typically two days at 30° C. with shaking. The standard recipe for yeast SM calls for 2% dextrose, 0.67% yeast nitrogen base with ammonium sulfate/without amino acids (e.g. from US Biological) and a -Trp-Leu amino acid dropout mix (Qbiogene, Inc.).

In the case of `CC[C@@]1(OC(=O)CN)C(=O)OCc2c1cc1n(c2=O)Cc2cc3ccccc3nc2-1.Cl` [NSC606985, glycine 4-ethyl-3,4,12,14-tetrahydro-3,14-dioxo-1H-pyrano[3′, 4′:6,7]indolizino[1,2-b]quinolin-4-yl ester, (S)-monohydrochloride], the “Rad17 self-interaction response in DIPI assay (colony growth on -His medium)” value (“Rad17 self-interaction response” below) is reported as “increasing Rad17 self-interaction”.
`CC[C@@]1(O)C(=O)OCc2c1cc1n(c2=O)Cc2cc3ccccc3nc2-1` [camptothecin] was tested, and the “number of colonies in DIPI assay, 96 well plate format” value (96 well plate, after 3-4 days, compared to control (DMSO), listed as CPT) was “number of colonies increased significantly; also recorded: number of colonies is increased”, the “Rad17 homomeric interaction response in DIPI assay” value (top1δ background (topoisomerase I deleted)) was “absence of increased homomeric Rad17 interaction” and the “Rad17 self-interaction response” value was “very responsive; also recorded: increasing Rad17 self-interaction”. The “Rad17 self-interaction response” value (listed as CPT) was “positive CPT response”.
